Results: US11053251B2, “GPR35 modulators” (Prometheus Biosciences, Inc., priority 2019, dated 2021)

Target: Human GPR35 (Homo sapiens, UniProt Q9HC97, S294R)
Assay: Alternative Beta-Arrestin Assay (JumpIn 294R Tango U2OS cells, LiveBLAzer-FRET B/G)
Assay type: cell-based
Settings: for EC50: Human GPR35 expressing JumpIn 294R Tango U2OS cells, 5 hours treatment
Experimental: Human GPR35 expressing JumpIn (Thermo Fisher) 294R Tango U2OS cells were plated in 384-well format in clear bottom plates at a cell density of 10,000 cells/well and allowed to grow overnight. The next day, cells were treated with serially diluted test compounds for 5 hours. LiveBLAzer-FRET B/G (CCF4-AM) detection reagents were then added and cells were allowed to incubate for 2 hours before reading plates on a BioTek Cytation 5 plate reader. Zaprinast was used as a positive control for dose-response curves. In order to determine EC50 values, data w ere fit to a four-parameter dose-response curves.

Chain of Human GPR35 (Q9HC97 whole entry S294R): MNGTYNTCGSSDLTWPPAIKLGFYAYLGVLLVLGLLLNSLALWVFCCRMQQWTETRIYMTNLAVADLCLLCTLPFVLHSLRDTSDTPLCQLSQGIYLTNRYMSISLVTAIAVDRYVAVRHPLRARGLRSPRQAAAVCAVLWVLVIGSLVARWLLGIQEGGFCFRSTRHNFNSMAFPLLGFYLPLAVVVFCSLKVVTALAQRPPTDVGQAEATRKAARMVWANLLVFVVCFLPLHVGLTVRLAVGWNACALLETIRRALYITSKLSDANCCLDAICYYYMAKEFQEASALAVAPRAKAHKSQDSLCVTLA

SMILES	EC50 [µM]	% inhibition at 50 μM (at 50 μM, Table 2) [% inhibition at]
CCOc1cc(-c2cccc(NCC(=O)O)c2)ccc1-c1nc2[nH]nnc2c(=O)[nH]1 [Compound 214, (3′-Ethoxy-4′-(7-oxo-6,7-dihydro-3H-[1,2,3]triazolo[4,5-d]pyrimidin-5-yl)-[1,1′-biphenyl]-3-yl)glycine]	≤ 10	
O=C(O)c1ccc(-c2ccc(-c3nc4[nH]nnc4c(=O)[nH]3)c(OCCN3CCCC3)c2)cc1 [Compound 227, 4′-(7-Oxo-6,7-dihydro-3H-[1,2,3]triazolo[4,5-d]pyrimidin-5-yl)-3′-(2-(pyrrolidin-1-yl)ethoxy)-[1,1′-biphenyl]-4-carboxylic acid]		66
CCOc1cc(-c2cccc(CC(CC)C(=O)O)c2)ccc1-c1nc2[nH]nnc2c(=O)[nH]1 (single isomer, unassigned) [Compound 240, 2-((3′-ethoxy-4′-(7-oxo-6,7-dihydro-3H-[1,2,3]triazolo[4,5-d]pyrimidin-5-yl)-[1,1′-biphenyl]-3-yl)methyl)butanoic acid]	≤ 10	
CCOc1cc(-c2cc(O)cc(OC(CC)C(=O)O)c2)ccc1-c1nc2[nH]nnc2c(=O)[nH]1 (stereo not drawn) [Compound 257, 2-((3′-ethoxy-5-hydroxy-4′-(7-oxo-6,7-dihydro-3H-[1,2,3]triazolo[4,5-d]pyrimidin-5-yl)-[1,1′-biphenyl]-3-yl)oxy)butanoic acid]	≤ 10	
CCOc1cc(-c2ccc(O)c(NCC(=O)O)c2)ccc1-c1nc2[nH]nnc2c(=O)[nH]1 [Compound 222, (3′-Ethoxy-4-hydroxy-4′-(7-oxo-6,7-dihydro-3H-[1,2,3]triazolo[4,5-d]pyrimidin-5-yl)-[1,1′-biphenyl]-3-yl)glycine]	≤ 10	
O=C(O)c1ccc(-c2ccc(-c3nc4[nH]nnc4c(=O)[nH]3)c(OC3CCCC3)c2)c(O)c1 [Compound 202, 3′-(Cyclopentyloxy)-2-hydroxy-4′-(7-oxo-6,7-dihydro-3H-[1,2,3]triazolo[4,5-d]pyrimidin-5-yl)-[1,1′-biphenyl]-4-carboxylic acid]	≤ 10	
CCOc1cc(-c2cccc(CC(C)C(=O)OC)c2)ccc1-c1nc2[nH]nnc2c(=O)[nH]1 (stereo not drawn) [Compound 310, methyl 3-(3′-ethoxy-4′-(7-oxo-6,7-dihydro-3H-[1,2,3]triazolo[4,5-d]pyrimidin-5-yl)-[1,1′-biphenyl]-3-yl)-2-methylpropanoate]	≤ 10	
CCOC(=O)C(Oc1cccc(-c2ccc(-c3nc4[nH]nnc4c(=O)[nH]3)c(OCC)c2)c1)C(C)C (stereo not drawn) [Compound 268, ethyl 2-((3′-ethoxy-4′-(7-oxo-6,7-dihydro-3H-[1,2,3]triazolo[4,5-d]pyrimidin-5-yl)-[1,1′-biphenyl]-3-yl)oxy)-3-methylbutanoate]	≤ 10	
O=C(O)c1ccc(O)c(-c2ccc(-c3nc4[nH]nnc4c(=O)[nH]3)c(OC3CCCC3)c2)c1 [Compound 210, 3′-(Cyclopentyloxy)-6-hydroxy-4′-(7-oxo-6,7-dihydro-3H-[1,2,3]triazolo[4,5-d]pyrimidin-5-yl)-[1,1′-biphenyl]-3-carboxylic acid]	≤ 10	
CCOc1cc(-c2cccc(CC(C)(C)C(=O)O)c2)ccc1-c1nc2[nH]nnc2c(=O)[nH]1 [Compound 243, 3-(3′-ethoxy-4′-(7-oxo-6,7-dihydro-3H-[1,2,3]triazolo[4,5-d]pyrimidin-5-yl)-[1,1′-biphenyl]-3-yl)-2,2-dimethylpropanoic acid]	≤ 10	
CCOc1cc(-c2ccc(OCCN(C)C)c(/C=C/C(=O)O)c2)ccc1-c1nc2[nH]nnc2c(=O)[nH]1 [Compound 319, (E)-3-(4-(2-(dimethylamino)ethoxy)-3′-ethoxy-4′-(7-oxo-6,7-dihydro-3H-[1,2,3]triazolo[4,5-d]pyrimidin-5-yl)-[1,1′-biphenyl]-3-yl)acrylic acid]	≤ 10	
CCOc1cc(-c2ccc(OCCN3CCCC3)c(CCC(=O)O)c2)ccc1-c1nc2[nH]nnc2c(=O)[nH]1 [Compound 318, 3-(3′-ethoxy-4′-(7-oxo-6,7-dihydro-3H-[1,2,3]triazolo[4,5-d]pyrimidin-5-yl)-4-(2-(pyrrolidin-1-yl)ethoxy)-[1,1′-biphenyl]-3-yl)propanoic acid]	≤ 10	
CCOc1cc(-c2ccc(NC(C)=O)c(C(=O)O)c2)ccc1-c1nc2[nH]nnc2c(=O)[nH]1 [Compound 184, 4-acetamido-3′-ethoxy-4′-(7-oxo-6,7-dihydro-3H-[1,2,3]triazolo[4,5-d]pyrimidin-5-yl)-[1,1′-biphenyl]-3-carboxylic acid]	≤ 10	
CCOc1cc(-c2ccc(OC(C)C)c(CC(C)C(=O)O)c2)ccc1-c1nc2[nH]nnc2c(=O)[nH]1 (stereo not drawn) [Compound 302, 3-(3′-ethoxy-4-isopropoxy-4′-(7-oxo-6,7-dihydro-3H-[1,2,3]triazolo[4,5-d]pyrimidin-5-yl)-[1,1′-biphenyl]-3-yl)-2-methylpropanoic acid]	≤ 10	
CCOc1cc(-c2ccc(F)c(O[C@@H](C)C(=O)O)c2)ccc1-c1nc2[nH]nnc2c(=O)[nH]1 [Compound 265, (S)-2-((3′-ethoxy-4-fluoro-4′-(7-oxo-6,7-dihydro-3H-[1,2,3]triazolo[4,5-d]pyrimidin-5-yl)-[1,1′-biphenyl]-3-yl)oxy)propanoic acid]	≤ 10	
CCOc1cc(-c2cc(O)cc(O[C@H](CC)C(=O)O)c2)ccc1-c1nc2[nH]nnc2c(=O)[nH]1 (single isomer, unassigned) [Compound 258]	≤ 10	
CCOc1cc(-c2cccc(OC(CC)C(=O)O)c2)ccc1-c1nc2[nH]nnc2c(=O)[nH]1 (stereo not drawn) [Compound 247, 2-((3′-ethoxy-4′-(7-oxo-6,7-dihydro-3H-[1,2,3]triazolo[4,5-d]pyrimidin-5-yl)-[1,1′-biphenyl]-3-yl)oxy)butanoic acid]	≤ 10	
CCOc1cc(-c2ccc(O)c(OCC(=O)O)c2)ccc1-c1nc2[nH]nnc2c(=O)[nH]1 [Compound 281, 2-((3′-ethoxy-4-hydroxy-4′-(7-oxo-6,7-dihydro-3H-[1,2,3]triazolo[4,5-d]pyrimidin-5-yl)-[1,1′-biphenyl]-3-yl)oxy)acetic acid]	≤ 10	
CCOc1cc(-c2cccc(CC(CC)C(=O)O)c2)ccc1-c1nc2[nH]nnc2c(=O)[nH]1 (stereo not drawn) [Compound 239, 2-((3′-ethoxy-4′-(7-oxo-6,7-dihydro-3H-[1,2,3]triazolo[4,5-d]pyrimidin-5-yl)-[1,1′-biphenyl]-3-yl)methyl)butanoic acid]	≤ 10	
CCOc1cc(-c2cc(C)cc(O[C@@H](C)C(=O)O)c2)ccc1-c1nc2[nH]nnc2c(=O)[nH]1 [Compound 267, (S)-2-((3′-ethoxy-5-methyl-4′-(7-oxo-6,7-dihydro-3H-[1,2,3]triazolo[4,5-d]pyrimidin-5-yl)-[1,1′-biphenyl]-3-yl)oxy)propanoic acid]	≤ 10	
CCOc1cc(-c2ccc(F)c(O[C@H](C)C(=O)O)c2)ccc1-c1nc2[nH]nnc2c(=O)[nH]1 [Compound 264, (R)-2-((3′-ethoxy-4-fluoro-4′-(7-oxo-6,7-dihydro-3H-[1,2,3]triazolo[4,5-d]pyrimidin-5-yl)-[1,1′-biphenyl]-3-yl)oxy)propanoic acid]	≤ 10	
CCOc1cc(-c2cccc(CC3(C(=O)O)CCC3)c2)ccc1-c1nc2[nH]nnc2c(=O)[nH]1 [Compound 246, 1-((3′-ethoxy-4′-(7-oxo-6,7-dihydro-3H-[1,2,3]triazolo[4,5-d]pyrimidin-5-yl)-[1,1′-biphenyl]-3-yl)methyl)cyclobutane-1-carboxylic acid]	≤ 10	
CCOc1cc(-c2cccc(NC(C)(C)C(=O)O)c2)ccc1-c1nc2[nH]nnc2c(=O)[nH]1 [Compound 224, 2-((3′-Ethoxy-4′-(7-oxo-6,7-dihydro-3H-[1,2,3]triazolo[4,5-d]pyrimidin-5-yl)-[1,1′-biphenyl]-3-yl)amino)-2-methylpropanoic acid]	≤ 10	
Nc1cc(-c2nc3[nH]nnc3c(=O)[nH]2)ccc1-c1ccc(C(=O)O)cc1 [Compound 287, 2′-amino-4′-(7-oxo-6,7-dihydro-3H-[1,2,3]triazolo[4,5-d]pyrimidin-5-yl)-[1,1′-biphenyl]-4-carboxylic acid]	≤ 10	
CCOc1cc(-c2cccc(C[C@H](OC)C(=O)O)c2)ccc1-c1nc2[nH]nnc2c(=O)[nH]1 [Compound 283, (S)-3-(3′-ethoxy-4′-(7-oxo-6,7-dihydro-3H-[1,2,3]triazolo[4,5-d]pyrimidin-5-yl)-[1,1′-biphenyl]-3-yl)-2-methoxypropanoic acid]	≤ 10	
CCOc1cc(-c2ccc(O)c(CCC(=O)O)c2)ccc1-c1nc2[nH]nnc2c(=O)[nH]1 [Compound 309, 3-(3′-ethoxy-4-hydroxy-4′-(7-oxo-6,7-dihydro-3H-[1,2,3]triazolo[4,5-d]pyrimidin-5-yl)-[1,1′-biphenyl]-3-yl)propanoic acid]	≤ 10	
O=C(O)c1ccc(-c2ccc(-c3nc4[nH]nnc4c(=O)[nH]3)cc2[N+](=O)[O-])cc1 [Compound 286, 2′-nitro-4′-(7-oxo-6,7-dihydro-3H-[1,2,3]triazolo[4,5-d]pyrimidin-5-yl)-[1,1′-biphenyl]-4-carboxylic acid]	≤ 10	
CCOc1cc(-c2ccc(C)c(OC(CC)C(=O)O)c2)ccc1-c1nc2[nH]nnc2c(=O)[nH]1 (stereo not drawn) [Compound 272, 2-((3′-ethoxy-4-methyl-4′-(7-oxo-6,7-dihydro-3H-[1,2,3]triazolo[4,5-d]pyrimidin-5-yl)-[1,1′-biphenyl]-3-yl)oxy)butanoic acid]	≤ 10	
CCOc1cc(-c2ccc(C(=O)O)c(C)c2)ccc1-c1nc2[nH]nnc2c(=O)[nH]1 [Compound 207, 3′-Ethoxy-3-methyl-4′-(7-oxo-6,7-dihydro-3H-[1,2,3]triazolo[4,5-d]pyrimidin-5-yl)-[1,1′-biphenyl]-4-carboxylic acid]	≤ 10	
CCOc1cc(-c2ccc(OCC(=O)O)cc2)ccc1-c1nc2[nH]nnc2c(=O)[nH]1 [Compound 211, 2-((3′-Ethoxy-4′-(7-oxo-6,7-dihydro-3H-[1,2,3]triazolo[4,5-d]pyrimidin-5-yl)-[1,1′-biphenyl]-4-yl)oxy)acetic acid]	≤ 10	
